Each structure is given as a SMILES string.

A word on the EC50: it is the concentration giving half of the maximal effect.

One experiment concerns HCV 1b genotype. Kind of experiment: HCV replicon assay, 1b genotype. It is filed as cell-based. As to conditions: Hepatitis C virus; HCV 1b genotype replicon; activity ranges; read-out: 1b EC50 in Range. The protocol: An HCV Replion assay was utilized in the present disclosure, and was prepared, conducted and validated as described in commonly owned PCT/US2006/022197 and in O'Boyle et. al. Antimierob Agents Chemother. 2005 April; 49(4):1346-53. Assay methods incorporating luciferase reporters have also been used as described (Apath.com).
HCV-neo replicon cells and HCV replicon cells containing mutations in the NS5A region were used to test the currently described family of compounds. The compounds were determined to have more than 10-fold less inhibitory activity on cells containing mutations than wild-type cells. Thus, the compounds of the present disclosure can be effective in inhibiting the function of the HCV NS5A protein and are understood to be as effective in combinations as previously described in application PCT/US2006/022197 and commonly owned WO/04014852. Further, the compounds of the present disclosure can be effective against the HCV 1b genotype. It should also be understood that the compounds of the present disclosure can inhibit multiple genotypes of HCV. […] In one embodiment, compounds of the present disclosure are inhibitory versus 1a, 1b, 2a, 2b, 3a, 4a, and 5a genotypes. Activity ranges are as follows: A=>100 nM; B=1-100 nM; C=101-999 pM; and D=1-100 pM.
(In general: A replicon is a self-replicating genome or part of one, used to study replication in cells.)
Regarding `COC(=O)N[C@@H](C(=O)N1CCC[C@H]1C(=O)Nc1n[nH]c2ccc(-c3ccc(-c4cnc([C@@H]5CCCN5C(=O)[C@H](NC(=O)OC)c5ccccc5)[nH]4)cc3)cc12)c1ccccc1` [Example 34], the EC50 lay within 1 to 100 nM.
The same measure, in the same setting: as for `COCC[C@H](NC(=O)OC)C(=O)N1CCC[C@H]1C(=O)Nc1n[nH]c2ccc(-c3ccc(-c4cnc([C@@H]5CCCN5C(=O)[C@H](CCOC)NC(=O)OC)[nH]4)cc3)cc12` [Example 32], the figure is 1 to 100 nM.
Still for that read-out and setting: next, `COC(=O)N[C@@H](C)C(=O)N1CCC[C@H]1C(=O)Nc1n[nH]c2cc(-c3ccc(-c4cnc([C@@H]5CCCN5C(=O)[C@H](C)NC(=O)OC)[nH]4)cc3)ccc12` [Example 22, (S)-1-((S)-2-Methoxycarbonylaminopropanoyl)-N-(6-(4-(2-((S)-1-((S)-2-methoxycarbonylaminopropanoyl)pyrrolidin-2-yl)-1H-imidazol-5-yl)phenyl)-1H-indazol-3-yl)pyrrolidine-2-carboxamide]: 1 to 100 nM.
Still for that read-out and setting: next, `COC(=O)N[C@H](C(=O)N1CCC[C@H]1C(=O)Nc1noc2ccc(-c3ccc(-c4cnc([C@@H]5CCCN5C(=O)[C@@H](NC(=O)OC)[C@@H](C)OC)[nH]4)cc3)cc12)[C@@H](C)OC` [Example 14]: 1 to 100 nM; `COC(=O)N[C@H](C(=O)N1CCC[C@H]1C(=O)Nc1noc2ccc(-c3ccc(-c4cnc([C@@H]5CCCN5C(=O)[C@@H](NC(=O)OC)C(C)C)[nH]4)cc3)cc12)C(C)C` [Example 13]: 1 to 100 nM.
For the compound `COC(=O)N[C@@H](C(=O)N1CCC[C@H]1C(=O)Nc1noc2ccc(-c3ccc(-c4cnc([C@@H]5CCCN5C(=O)[C@H](NC(=O)OC)C(C)C)[nH]4)cc3)cc12)C(C)C` [Example 16], the EC50 is over 100 nM.
On the same count and under the same terms, as for `CN(C)[C@@H](C(=O)N1CCC[C@H]1C(=O)Nc1noc2ccc(-c3ccc(-c4cnc([C@@H]5CCCN5C(=O)[C@@H](c5ccccc5)N(C)C)[nH]4)cc3)cc12)c1ccccc1` [Example 17], the figure is 1 to 100 nM; as for `COCC[C@H](NC(=O)OC)C(=O)N1CCC[C@H]1C(=O)Nc1noc2ccc(-c3ccc(-c4cnc([C@@H]5CCCN5C(=O)[C@H](CCOC)NC(=O)OC)[nH]4)cc3)cc12` [Example 15], 1 to 100 nM; as for `CN(C)[C@@H](C(=O)N1CCC[C@H]1C(=O)Nc1n[nH]c2ccc(-c3ccc(-c4cnc([C@@H]5CCCN5C(=O)[C@@H](c5ccccc5)N(C)C)[nH]4)cc3)cc12)c1ccccc1` [Example 30], 1 to 100 nM.
Still for that read-out and setting: as for `COC(=O)N[C@H](C(=O)N1CCC[C@H]1C(=O)Nc1noc2cc(-c3ccc(-c4cnc([C@@H]5CCCN5C(=O)[C@@H](NC(=O)OC)[C@@H](C)OC)[nH]4)cc3)ccc12)[C@@H](C)OC` [Example 8], the figure is 0.101 to 0.999 nM; as for `COC(=O)N[C@@H](C)C(=O)N1CCC[C@H]1C(=O)Nc1n[nH]c2ccc(-c3ccc(-c4cnc([C@@H]5CCCN5C(=O)[C@H](C)NC(=O)OC)[nH]4)cc3)cc12` [Example 29], over 100 nM.
Consider `COC(=O)N[C@H](C(=O)N1CCC[C@H]1C(=O)Nc1n[nH]c2cc(-c3ccc(-c4cnc([C@@H]5CCCN5C(=O)[C@@H](NC(=O)OC)C(C)C)[nH]4)cc3)ccc12)C(C)C` [Example 24], for which the EC50 lay in the range of 0.101 to 0.999 nM.
Consider `COC(=O)N[C@@H](C(=O)N1CCC[C@H]1C(=O)Nc1noc2cc(-c3ccc(-c4cnc([C@@H]5CCCN5C(=O)[C@H](NC(=O)OC)C(C)C)[nH]4)cc3)ccc12)C(C)C` [Example 7], for which the EC50 was over 100 nM.
On the same count and under the same terms, next, `COC(=O)N[C@H](C(=O)N1CCC[C@H]1C(=O)Nc1n[nH]c2ccc(-c3ccc(-c4cnc([C@@H]5CCCN5C(=O)[C@@H](NC(=O)OC)C(C)C)[nH]4)cc3)cc12)C(C)C` [Example 31]: over 100 nM.
Still for that read-out and setting: next, `COC(=O)N[C@H](C(=O)N1CCC[C@H]1C(=O)Nc1noc2cc(-c3ccc(-c4cnc([C@@H]5CCCN5C(=O)[C@@H](NC(=O)OC)C(C)C)[nH]4)cc3)ccc12)C(C)C` [Example 5]: 0.101 to 0.999 nM; `COC(=O)N[C@H](C(=O)N1CCC[C@H]1C(=O)Nc1n[nH]c2cc(-c3ccc(-c4cnc([C@@H]5CCCN5C(=O)[C@@H](NC(=O)OC)[C@@H](C)OC)[nH]4)cc3)ccc12)[C@@H](C)OC` [Example 25]: 1 to 100 nM; `COC(=O)N[C@H](C(=O)N1CCC[C@H]1C(=O)Nc1n[nH]c2ccc(-c3ccc(-c4cnc([C@@H]5CCCN5C(=O)[C@@H](NC(=O)OC)[C@@H](C)OC)[nH]4)cc3)cc12)[C@@H](C)OC` [Example 33]: over 100 nM.
Same read-out and setting: next, `COC(=O)N[C@@H](C)C(=O)N1CCC[C@H]1C(=O)Nc1noc2ccc(-c3ccc(-c4cnc([C@@H]5CCCN5C(=O)[C@H](C)NC(=O)OC)[nH]4)cc3)cc12` [Example 12]: 1 to 100 nM; `CN(C)[C@@H](C(=O)N1CCC[C@H]1C(=O)Nc1noc2cc(-c3ccc(-c4cnc([C@@H]5CCCN5C(=O)[C@@H](c5ccccc5)N(C)C)[nH]4)cc3)ccc12)c1ccccc1` [Example 6]: 0.101 to 0.999 nM.
Take `CCN(CC)[C@@H](C(=O)N1CCC[C@H]1C(=O)Nc1n[nH]c2cc(-c3ccc(-c4cnc([C@@H]5CCCN5C(=O)[C@@H](c5ccccc5)N(CC)CC)[nH]4)cc3)ccc12)c1ccccc1` [Example 23]: the EC50 fell in the range of 0.001 to 0.1 nM.

Still in this experiment, the particulars now being: Hepatitis C virus; HCV 1b genotype replicon; read-out: 1b EC50.
For the compound `COC(=O)N[C@H](C(=O)N1CCC[C@H]1C(=O)Nc1noc2ccc(-c3ccc(-c4cnc([C@@H]5CCCN5C(=O)[C@@H](NC(=O)OC)C(C)C)[nH]4)cc3)cc12)C(C)C` [Example 13], the EC50 worked out at 30.1 nM.
The same measure, in the same setting: next, `COC(=O)N[C@H](C(=O)N1CCC[C@H]1C(=O)Nc1n[nH]c2ccc(-c3ccc(-c4cnc([C@@H]5CCCN5C(=O)[C@@H](NC(=O)OC)[C@@H](C)OC)[nH]4)cc3)cc12)[C@@H](C)OC` [Example 33]: 1200 nM; `CCN(CC)[C@@H](C(=O)N1CCC[C@H]1C(=O)Nc1n[nH]c2cc(-c3ccc(-c4cnc([C@@H]5CCCN5C(=O)[C@@H](c5ccccc5)N(CC)CC)[nH]4)cc3)ccc12)c1ccccc1` [Example 23]: 0.043 nM.
